According to patent US11684660B2, “Human PD1 peptide vaccines and uses thereof” (OHIO STATE INNOVATION FOUNDATION, priority 2017, dated 2023):
No end group written: not given here.

Test system: murine colon carcinoma CT26 tumor cells
Assay: CT26 tumor challenge in Balb/c mice immunized with PD-1 constructs
Type: in vivo
Experimental: Immunocompetent Balb/c mice of 6-8 weeks of age were purchased from Charles River Laboratories, Wilmington, Mass. and housed in The Ohio State University's University Laboratory Animal Resources (ULAR) facilitates. Isoflurane was used to anaesthetize the animals before cells injection and termination. Pre-immune sera samples were taken from the mice then they were immunized with 100 μg of peptide emulsified in Montanide ISA 720 (Seppic, Paris, France) and nor-MDP adjuvant (N-acetyl-glucosamine-3 yl-acetyl L-alanyl-D-isoglutamine). Mice received booster immunizations 3 and 6 weeks after the first. Several test sera samples were taken from the mice (FIG. 8).
10 days after the second boost, mice were inoculated with […] murine colon carcinoma CT26 tumor cells subcutaneous on the right flank. Tumor growth was monitored three times a week and sera samples were taken weekly and upon sacrifice of the animal. Control mice on day 0 were engrated with 1×10^5 CT26 tumor cells subcutaneous and received. The animals received 150 μg injections of anti-mouse antibodies directed against PD-1. Mice were monitored and scored for the formation of palpable tumors twice weekly and sacrificed if tumors became necrotic or exceeded the predetermined size of 2,000 mm3. Tumor diameters were measured twice a week. Tumor size was calculated according to the formula: V=[(length ×width2)/2]. Tumor volumes were measured in cubic millimeters with calipers and calculated with the following formula: A×B2×0.5, where A is the largest diameter, and B is the smallest diameter. All experiments were performed in accordance with the U.S. Public Health Service Policy on Humane Care and Use of Laboratory Animals and approved by the Ohio State University Institutional Animals Care and Use Committee and detailed in the accepted protocol
To assess performance of 4 different vaccine treatments on tumor growth, tumor size was measured periodically in mice, and the results were compared to those of positive and negative controls. There were 5 mice in each treatment group, each receiving the assigned MVF-peptide and then being inoculated with 1e5 CT26 (colon) tumor cells 10 days after the final boost of the treatment. Day 14 was considered the primary time point of interest, as the investigators believed waiting until day 19 allowed the tumors too much time to grow, resulting in similar sizes at that point of the experiment. Tumor size was measured in three ways: LWW (½*length*width*width) at all time points, LWH (½*length*width*height) at all time points, and terminal tumor weight at the end of the study. The mice treated with MVF-PD-a(45), group C, were sacrificed before day 19 due to the death of one mouse, so the comparisons can only be made between tumor size at day 14. Tumor size is in units of mm3 for LWW and LWH and grams for terminal tumor weight.
Due to small sample sizes in each group and inability to assume normality, the exact Wilcoxon rank-sum test was used to check for systematic differences between the distributions of tumor size at times 14 days and 19 days (FIGS. 12A-D and Tables 7-10). P-values given are for test comparing that column's control to the respective treatment, and are two-sided to account for the possibility of tumor size being systematically larger or smaller between treatment and control. As this is preliminary data, the p-values are not adjusted for multiple comparisons. Overall, there were few instances of significant differences between the distributions of a control and a treatment.
Immunocompetent Balb/c mice (5 mice/gp) of 6-8 weeks of age were immunized with 100 μg of peptide emulsified in Montanide ISA 720 (Seppic, Paris, France) and nor-MDP adjuvant (N-acetyl-glucosamine-3 yl-acetyl L-alanyl-D-isoglutamine). […]

KLLSLIKGVIVHRLEGVE-GPSL-GAISLAPKAQIKESLRAEL-CONH2 (KLLSLIKGVIVHRLEGVEGPSLGAISLAPKAQIKESLRAEL-NH2) [MVF-PD-1 (92-110)]
inhibition of tumor growth (Day 14, FIG. 15): significant inhibition of tumor growth | median terminal tumor weight (end of study, 5 mice/group): 1.1 grams | difference in tumor size distribution versus controls (exact Wilcoxon rank-sum test, two-sided, unadjusted): systematically smaller tumor sizes than the positive control | median tumor size LWH, Day 19 (median, 5 mice/group): 819 mm3 | median tumor size LWW, Day 19 (median, 5 mice/group): 1080 mm3 | median tumor size LWH, Day 14 (median, 5 mice/group, ½*length*width*height): 270 mm3 | median tumor size LWW, Day 14 (median, 5 mice/group, ½*length*width*width): 384 mm3
